This is an account of results in PMC11039737, “Exploring a repurposed candidate with dual hIDO1/hTDO2 inhibitory potential for anticancer efficacy identified through pharmacophore-based virtual screening and in vitro evaluation” (Scientific Reports, 2024).

Experiment [1] addresses T1, human Indoleamine 2,3-dioxygenase 1 (hIDO1) (Homo sapiens, UniProt P14902).
T1 construct: gene IDO1
The experiment can be described thus: IDO1 Inhibitor Screening Assay Kit (Catalog # […]), enzymatic dose response. In kind it is biochemical.

The target of experiment [2] is T2, human Tryptophan 2,3-dioxygenase 2 (hTDO2) (Homo sapiens, UniProt P48775).
T2 construct: gene TDO2
The experiment can be described thus: TDO2 Fluorogenic Inhibitor Screening Assay Kit (Catalog # […]), enzymatic dose response. In kind it is biochemical.

T2 sequence (P48775 whole entry): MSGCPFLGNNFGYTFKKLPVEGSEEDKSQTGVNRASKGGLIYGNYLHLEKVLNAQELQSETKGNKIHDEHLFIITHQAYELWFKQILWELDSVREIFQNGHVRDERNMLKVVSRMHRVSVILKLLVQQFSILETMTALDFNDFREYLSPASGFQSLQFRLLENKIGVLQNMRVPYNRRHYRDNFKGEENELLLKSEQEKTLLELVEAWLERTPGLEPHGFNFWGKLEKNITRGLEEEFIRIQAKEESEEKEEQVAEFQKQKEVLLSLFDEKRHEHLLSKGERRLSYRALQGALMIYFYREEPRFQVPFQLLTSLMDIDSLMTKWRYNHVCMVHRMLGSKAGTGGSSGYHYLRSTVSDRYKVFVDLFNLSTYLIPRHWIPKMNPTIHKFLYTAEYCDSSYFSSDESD
T1 sequence (P14902 whole entry): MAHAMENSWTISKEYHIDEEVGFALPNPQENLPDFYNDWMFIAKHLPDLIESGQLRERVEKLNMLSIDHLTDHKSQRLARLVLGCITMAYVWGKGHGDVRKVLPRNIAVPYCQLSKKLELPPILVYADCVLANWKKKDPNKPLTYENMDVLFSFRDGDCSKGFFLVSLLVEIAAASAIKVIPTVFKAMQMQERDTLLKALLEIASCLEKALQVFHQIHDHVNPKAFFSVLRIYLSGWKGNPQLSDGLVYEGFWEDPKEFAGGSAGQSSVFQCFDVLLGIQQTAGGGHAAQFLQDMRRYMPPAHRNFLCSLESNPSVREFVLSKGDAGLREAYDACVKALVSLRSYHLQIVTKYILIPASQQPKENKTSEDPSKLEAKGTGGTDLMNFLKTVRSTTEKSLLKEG

With `O=C(O)C[C@H](O)C[C@H](O)/C=C/c1c(C2CC2)nc2ccccc2c1-c1ccc(F)cc1` [Pitavastatin], the IC50 in experiment [1] was 351 ± 16 nM; in experiment [2], 588 ± 27 nM.

What is called IC50 is the concentration that inhibits the measured activity by half. High values mean weaker potency in that assay, low ones greater potency in that assay.
